In assay [1] the target is sigma receptor (sigma-1 and sigma-2 sites). Description: Sigma receptor binding assay ([^3 H]DTG, guinea pig brain membrane homogenates). The settings on record: for IC50: Example 3 table, tested by the [^3 H]DTG assay of Example 2; for Ki: Table II, [^3 H]DTG 1.4 nM, guinea pig brain membranes, pH 7.4, 90 minutes room temperature, IC50 values indicated as Ki, read-out: Ki nM (± SEM). The method, then: Briefly, frozen whole guinea-pig brains (Biotrol, Indianapolis, Ind.) were homogenized in 10 volumes (w/v) of ice-cold 320 mM sucrose using a Brinkman® polytron. The homogenate was centrifuged at 1,000× g for 20 minutes at 4° C. The supernatant was centrifuged at 20,000× g for 20 minutes at 4° C. The resulting pellet was resuspended in 10 initial volumes of 50 mM Tris/HCI buffer at pH 7.4 and centrifuged at 20,000× g for 20 minutes at 4° C. The resulting pellet was resuspended in 5 initial volumes ice-cold 50 mM Tris/HCl (pH 7.4), and the final volume was adjusted to yield a protein concentration of 3 mg/mL.
The protein concentration in the 1-ml final incubation volume was 800 μg/ml, corresponding to 32 mg of brain tissue (original wet weight) and to a tissue concentration within the linear range for specific binding.
The volume of the assays may be changed, specifically halved, so long as the concentrations of the constituents remain the same. […] Incubations were terminated after 90 minutes at room temperature by addition of 4 ml of ice-cold 50 mM Tris/HCI (pH 7.4) and rapid filtration of the membrane suspension through Whatman® GF/B or Schieicher & Schuell #32 glass-fiber filters under vacuum, using a 48-well cell harvester (Brandel). The filters were washed 2 times with 4 mL of 50 mM Tris/HCI (pH 7.4). Each filter was suspended in 10 ml Cytoscint (ICI), and radioactivity was measured by liquid scintillation spectrometry at a counting efficiency of approximately 50%. IC50 values (indicated as Ki in Tables II below) were determined by non-linear regression analysis.

The target in assay [2] is sigma-1 receptor (Cavia porcellus, UniProt Q60492). Description: biochemical.
Sequence of sigma-1 receptor (Q60492 whole entry): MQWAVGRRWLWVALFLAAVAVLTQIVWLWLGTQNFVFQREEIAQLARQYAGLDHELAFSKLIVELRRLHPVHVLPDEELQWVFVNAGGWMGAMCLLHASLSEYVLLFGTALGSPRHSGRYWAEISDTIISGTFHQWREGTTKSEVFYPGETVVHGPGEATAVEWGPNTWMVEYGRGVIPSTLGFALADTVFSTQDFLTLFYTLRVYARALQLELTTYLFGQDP
Description: Non-specific binding was determined in the presence of 10 μM haloperiodol. For the standard equilibrium assay the mixtures were incubated for 4-5 hours at 37° C., quenched with 4 ml of ice cold incubation buffer and rapidly filtered over Whatman GF/B glass fiber filters, followed by three 4 ml rinses with additional ice cole incubation buffer.
Assay [3] concerns the target T1, sigma-2 receptor (Cavia porcellus, UniProt H0V073).
T1 construct: of guinea pig brain membranes in a total volume of 0.5 ml; from tissue; host or cells: guinea pig brain membranes
T1 sequence (H0V073 1-176): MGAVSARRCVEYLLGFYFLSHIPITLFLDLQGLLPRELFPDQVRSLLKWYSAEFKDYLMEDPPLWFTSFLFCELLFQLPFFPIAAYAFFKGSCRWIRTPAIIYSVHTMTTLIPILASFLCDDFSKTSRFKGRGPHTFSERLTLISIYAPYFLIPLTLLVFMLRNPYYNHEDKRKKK
Description: Sigma-2 binding assay ([^3 H]DTG in the presence of (+)pentazocine). Also noted: species or system guinea pig.
Description: Protocols of the Sigma-1 and Sigma-2 binding assays employed are as follows:

Each structure is given as a SMILES string. Where a name gives a salt, the structure may show the parent alone. Read-outs that look alike come from different tables or passages of the source.

Broadly, the IC50 is the concentration that inhibits the measured activity by half. The compound `CNC(CCCCCc1ccccc1)CCCCCc1ccccc1` came in with an IC50 in assay [1] of 2.97 nM. Compound `c1ccc(CCCCCNCCc2ccccc2)cc1` came in with an IC50 in assay [1] of 3.66 nM. As usually defined, the Ki is the equilibrium dissociation constant of an inhibitor or competing ligand from its target. As for `CN(CCCCCc1cccc(C(F)(F)F)c1)CCc1ccccc1`, the affinity in assay [2] corresponds to a Ki of 0.59 nM. Also, in assay [3] (read-out: Sigma 2 IC50), the IC50 stood at 3.57 nM. The like results for `CN(CCCCCc1ccccc1)CCc1cccc(C(F)(F)F)c1` were, in that order, 1.74 nM and 14.4 nM.

In assay [2], `CN(CCCCC(=O)c1cccc(C(F)(F)F)c1)CCc1ccccc1` yielded a Ki of 0.71 nM. Moreover, the IC50 in assay [3] (read-out: Sigma 2 IC50) was determined as 1.27 nM. As for `CN(CCCCC(c1ccccc1)c1ccccc1)CCc1ccccc1`, the IC50 in assay [3] (read-out: Sigma 2 IC50) was found to be 31.5 nM.

Regarding `C(CCCNCCc1ccccc1)=C(c1ccccc1)c1ccccc1`, the IC50 in assay [3] (read-out: Sigma 2 IC50) came out at 142 nM. In assay [2], `CC(Cc1ccccc1)NCCCCCc1ccccc1` (stereo not shown) showed a Ki of 0.54 nM. For the same compound, the IC50 in assay [3] stood at 10.9 nM. The like results for `CC(Cc1ccccc1)NCCCCc1ccccc1` (stereo not shown) were, in that order, 7.38 nM and 47.5 nM. As to `CC1CCN(CCCC=C(c2ccccc2)c2ccccc2)CC1`, in assay [3] (read-out: Sigma 2 IC50), the IC50 was 25 nM.

For the compound `O=C(CCCCN1CCC(c2ccc(Cl)cc2)CC1)c1ccc(Cl)c(Cl)c1` [Compound 1, 1,2,4-Dichlorophenyl-5-[4-(4-chlorophenyl)-1-piperidino]pentanone Hydrochloride], in assay [1], the Ki came out at 1.8 nM. Still for that read-out and setting: as for `COc1ccc(C(=O)CCCCN2CCC(c3ccccc3)CC2)cc1` [Compound 2, 1-(4-Methoxyphenyl)-5-(4-phenyl-l-piperidino)pentanone Hydrochloride], the figure is 0.8 nM. On to `Clc1ccc(CCCCCN2CCCCC2)cc1` [Compound 3, N-[5-(4-Chlorophenyl)pentyl]piperidine Hydrochloride], for which the Ki in assay [1] was 2 nM. The same measure, in the same setting: the value for `O=C(CCCCN1CCC(O)(c2ccc(Cl)cc2)CC1)c1ccc(F)cc1` [Compound 4] was 2.6 nM; that for `O=C(CCCCN1CCC(c2ccccc2)CC1)c1ccc(F)cc1` [Compound 5] was 0.8 nM. With `O=C(CCCCN1CCC(c2ccccc2)CC1)c1ccccc1` [Compound 6], the Ki in assay [1] stood at 0.9 nM.

Take `O=C(CCCCN1CCC(c2ccccc2)CC1)c1ccc(Cl)cc1` [Compound 7]: the Ki in assay [1] turned out to be 0.5 nM.

In the case of `O=C(CCCCN1CCC(c2ccccc2)CC1)c1cccc(Cl)c1` [Compound 8], the Ki in assay [1] came to 1.1 nM. Still for that read-out and setting: as for `COc1cccc(C(=O)CCCCN2CCC(c3ccccc3)CC2)c1` [Compound 9], the figure is 1 nM; as for `O=C(CCCCN1CCC(c2ccc(Cl)cc2)CC1)c1ccc(Cl)cc1` [Compound 10], 1.8 nM; as for `O=C(CCCCN1CC=C(c2ccc(Cl)cc2)CC1)c1ccc(Cl)cc1` [Compound 12], 4.3 nM.

As for `O=C(CCCCN1CC=C(c2ccc(F)cc2)CC1)c1ccc(Cl)cc1` [Compound 13], in assay [1], the Ki is 2 nM. Consider `c1ccc(CCCCCN2CCC(c3ccccc3)CC2)cc1` [Compound 14], for which the Ki in assay [1] was found to be 0.9 nM. The same measure, in the same setting: as for `Clc1ccc(CCCCCN2CCC(c3ccccc3)CC2)cc1` [Compound 15], the figure is 1.8 nM; as for `COc1ccc(CCCCCN2CCC(c3ccccc3)CC2)cc1` [Compound 16], 1.2 nM. On to `O=C(CCCCN1CCCCC1)c1ccccc1` [Compound 17], for which the Ki in assay [1] is 25.2 nM. On the same count and under the same terms, as for `O=C(CCCCN1CCCCC1)c1ccc(F)cc1` [Compound 18], the figure is 6.7 nM. The same measure, in the same setting: as for `O=C(CCCCN1CCCCC1)c1ccc(Cl)cc1` [Compound 19], the figure is 1.2 nM; as for `O=C(CCCCN1CCCCC1)c1cccc(Cl)c1` [Compound 20], 3.8 nM; as for `COc1ccc(C(=O)CCCCN2CCCCC2)cc1` [Compound 21], 9.9 nM. For the compound `COc1cccc(C(=O)CCCCN2CCCCC2)c1` [Compound 22], in assay [1], the Ki was found to be 20.7 nM.

Take `c1ccc(CCCCCN2CCCCC2)cc1` [Compound 23]: the Ki in assay [1] worked out at 1.9 nM.

For `COc1ccc(CCCCCN2CCCCC2)cc1` [Compound 24], the Ki in assay [1] is 4.7 nM. Take `COc1cccc(CCCCCN2CCCCC2)c1` [Compound 25]: in assay [1], the Ki worked out at 10.7 nM. Compound `c1cc2c(cc1CCCCCN1CCCCC1)OCO2` [drawing 25] showed an IC50 in assay [1] of 2.25 nM.
